Target: Aurora kinase-1 (TbAUK1) (Trypanosoma brucei, UniProt Q384J7)
Assay: in vitro kinase assay of immunoprecipitated kinase
Type: biochemical

CCS(=O)(=O)Nc1ccc2c(c1)/C(=C(/Nc1ccc(CN3CCCCC3)cc1)c1ccccc1)C(=O)N2 [Hesperadin]
IC50: 40 nM

Source: publication PMC2697958 (Molecular microbiology, 2009)
